Assay results published in publication PMC8879074, “A Novel Small Molecular Prostaglandin Receptor EP4 Antagonist, L001, Suppresses Pancreatic Cancer Metastasis” (Molecules, 2022).

Columns and labels:
human EP2 = molecular target: T1, human EP2 (Homo sapiens, UniProt P43116); experiment: Calcium flux assay, human EP2; type: cell-based; settings: CHO-Gα16 cells, PGE2 (EC80)
T1 construct: expressed in transfected cells; host or cells: CHO-Gα16
Protocol: (§1) Calcium flux assay was conducted as described in our previous study. Briefly, CHO-Gα16 cells were transfected, respectively, with human EP1, human EP2, human EP3, human EP4, monkey EP4, mouse EP4 and rat EP4 overexpression constructs using lipofectamine 2000 according to the manufacturer’s manual. Cells were then seeded into a 96-well black plate with a cell density of 2 × 10^4 cells/100 μL per well for a 16-h culture. On the next day, cells were incubated for 45 min with reagents (100 μL/well) of Calcium-5 Assay Kit (Molecular Devices, San Jose, CA, USA). Then, cells were pre-treated with indicated concentrations of L001 for 15 min and stimulated with PGE2 (EC80). The calcium flux was detected subsequently by a Flexstation® 3 Multi-Mode Microplate Reader (Molecular Devices, San Jose, CA, USA).

human EP3 = molecular target: T2, human EP3 (Homo sapiens, UniProt P43115); experiment: Calcium flux assay, human EP3; type: cell-based; settings: CHO-Gα16 cells, PGE2 (EC80)
T2 construct: expressed in transfected cells; host or cells: CHO-Gα16
T2 sequence (P43115 1-390): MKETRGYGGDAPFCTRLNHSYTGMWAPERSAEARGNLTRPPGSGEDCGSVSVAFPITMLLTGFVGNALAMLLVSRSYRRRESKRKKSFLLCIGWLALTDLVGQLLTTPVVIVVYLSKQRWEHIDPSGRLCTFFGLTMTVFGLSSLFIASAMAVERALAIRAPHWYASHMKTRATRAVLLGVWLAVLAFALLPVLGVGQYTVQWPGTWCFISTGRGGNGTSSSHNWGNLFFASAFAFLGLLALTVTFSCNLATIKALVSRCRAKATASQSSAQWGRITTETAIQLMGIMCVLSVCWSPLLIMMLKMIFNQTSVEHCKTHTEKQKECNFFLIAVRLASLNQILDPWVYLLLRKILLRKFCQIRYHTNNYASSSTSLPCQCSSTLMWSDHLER
Protocol: as §1

mouse EP4 = molecular target: T3, mouse EP4 (Mus musculus, UniProt P32240); experiment: Calcium flux assay, mouse EP4; type: cell-based
T3 construct: expressed in transfected cells; host or cells: CHO-Gα16
T3 sequence (P32240 whole entry): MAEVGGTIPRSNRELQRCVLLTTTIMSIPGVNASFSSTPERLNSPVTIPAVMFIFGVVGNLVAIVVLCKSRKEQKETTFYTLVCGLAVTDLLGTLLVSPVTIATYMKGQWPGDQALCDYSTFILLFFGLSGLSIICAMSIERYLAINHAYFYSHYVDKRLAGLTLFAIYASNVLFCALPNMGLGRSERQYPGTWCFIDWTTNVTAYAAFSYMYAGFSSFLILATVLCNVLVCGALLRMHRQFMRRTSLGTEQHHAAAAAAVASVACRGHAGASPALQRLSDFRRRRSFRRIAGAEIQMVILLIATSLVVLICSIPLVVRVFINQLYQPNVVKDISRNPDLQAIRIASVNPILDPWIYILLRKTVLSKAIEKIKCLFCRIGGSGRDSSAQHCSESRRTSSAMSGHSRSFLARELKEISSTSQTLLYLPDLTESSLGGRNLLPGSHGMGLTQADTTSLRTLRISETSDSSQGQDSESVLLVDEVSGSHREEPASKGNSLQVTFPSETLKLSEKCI
Protocol: as §1

rat EP4 = molecular target: T4, rat EP4 (Rattus norvegicus, UniProt P43114); experiment: Calcium flux assay, rat EP4; type: cell-based
T4 construct: expressed in transfected cells; host or cells: CHO-Gα16
T4 sequence (P43114 whole entry): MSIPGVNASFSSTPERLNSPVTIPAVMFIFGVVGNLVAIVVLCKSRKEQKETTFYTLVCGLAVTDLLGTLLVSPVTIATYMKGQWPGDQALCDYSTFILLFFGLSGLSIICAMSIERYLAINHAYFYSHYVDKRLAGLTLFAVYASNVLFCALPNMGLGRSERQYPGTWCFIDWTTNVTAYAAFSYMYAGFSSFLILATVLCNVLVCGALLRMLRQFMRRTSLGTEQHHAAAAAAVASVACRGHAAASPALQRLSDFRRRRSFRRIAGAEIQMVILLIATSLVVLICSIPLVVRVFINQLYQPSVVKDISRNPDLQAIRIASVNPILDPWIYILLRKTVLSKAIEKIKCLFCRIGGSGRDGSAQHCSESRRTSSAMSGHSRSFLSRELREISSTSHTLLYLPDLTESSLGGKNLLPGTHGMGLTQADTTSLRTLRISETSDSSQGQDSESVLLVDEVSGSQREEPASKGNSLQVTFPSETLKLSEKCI
Protocol: as §1

Pan02 cells [1] = experiment: Transwell migration assay, Pan02; type: cell-based, murine; settings: Pan02; with PGE2; 24 h
Protocol: The transwell assay was conducted as described previously, using 8 μm pore transwell inserts (Corning, NY, USA). Cells were suspended in serum-free DMEM and seeded into upper chambers at appropriate density. The bottom chamber was filled with DMEM supplemented with 10% fetal bovine serum and indicated concentrations of PGE2. The compounds were added in both upper and bottom chambers. […] Migrated cells were counted and quantified using image J.

Pan02 cells [2] = experiment: 3D Matrigel tumor spheroid invasion assay, Pan02; type: cell-based, murine; settings: 0.1 μM PGE2, day 7
Protocol: (§2) The 3D Matrigel invasion assay was performed as described. Pan02 and BxPC-3 cells were plated above a layer of Matrigel (ThermoFisher, Shanghai, China) and covered with growth medium containing 10% Matrigel. The culture medium containing different concentrations of compounds was changed every two days. After 7 days, cells with stellate invasive structure were photographed (OLYMPUS, Tokyo, Japan).

BxPC-3 cells = experiment: 3D Matrigel tumor spheroid invasion assay, BxPC-3; type: cell-based, human; settings: 0.1 μM PGE2, day 7
Protocol: as §2

[3] = test system: YAP, CYR61 and CTGF mRNA in Pan02 cells; experiment: Real-time qPCR of YAP and YAP target genes, Pan02; type: cell-based, murine; settings: PGE2 0.1 μM, compound 10 μM, 12 h
Protocol: Total RNA was extracted from cells using TRIzol reagent. The cDNA was synthesized by RT-PCR kit (Vazyme Biotech, Nanjing, China). The band intensity was determined by the gel image analysis system (Bio-Rad, Hercules, CA, USA). SYBR Green-based qPCR (Yeason, Shanghai, China) was conducted subsequently. Relative mRNA levels of target genes were normalized with β-actin. The sequences of primers are listed in Supplementary Table S1. The raw data are listed in Supplementary Table S2.

[4] = test system: Pan02-Luc hepatic metastasis; experiment: Pan02-Luc liver metastasis model with bioluminescent imaging; type: in vivo, C57BL/6 mice
Protocol: Male C57/BL6 mice (6–8 weeks) were obtained from the National Rodent Laboratory Animal Resources (NRLAR, Shanghai, China). All mice were housed according to Institutional Animal Care and Use Committee guidelines and under a protocol approved by East China Normal University Ethics Committee with respect to animal care and welfare assurance. The bioluminescent liver metastasis mouse model was established as described previously. In brief, 2 × 10^6 Pan02/luc cells suspended in 50 μL of PBS were injected into mice spleen. […] Tumor metastasis was monitored by using an in vivo imaging system following intraperitoneal injection with D-Luciferin (2 mg per mouse; Promega). Bioluminescence intensity was recorded every seven days by a Xenogen IVIS-200 Optical in vivo imaging system (PerkinElmer; Waltham, MA, USA) for up to 4 weeks. The mouse body weight was measured every other day. Survival curve analysis was performed using GraphPad Prism 7.
Mouse liver tissues were harvested, fixed, paraffin embedded, and sectioned (8 μm). The tissues were permeabilized with 0.25% TritonX-100 at room temperature for 15 min, blocked with 1% FBS in PBS, and followed by incubation in primary antibodies at 4 °C overnight: rabbit anti-YAP (1:50 dilution, ab205270, abcam). The sections were then washed with PBS, incubated with anti-rabbit secondary antibody for 2 h and dyed with DAPI (10 μg/mL in PBS) for 5 min at room temperature. Slides were mounted using DPX Mountant (Electron Microscopy Sciences) and images were obtained by inverted fluorescence microscope (Olympus, Tokyo, Japan).

EP4 [5] = molecular target: T5, EP4 (Homo sapiens, UniProt P35408); experiment: Calcium flux assay, human EP4; type: cell-based; set-up: expressed in transfected cells; host or cells: CHO-Gα16
T5 sequence (P35408 whole entry): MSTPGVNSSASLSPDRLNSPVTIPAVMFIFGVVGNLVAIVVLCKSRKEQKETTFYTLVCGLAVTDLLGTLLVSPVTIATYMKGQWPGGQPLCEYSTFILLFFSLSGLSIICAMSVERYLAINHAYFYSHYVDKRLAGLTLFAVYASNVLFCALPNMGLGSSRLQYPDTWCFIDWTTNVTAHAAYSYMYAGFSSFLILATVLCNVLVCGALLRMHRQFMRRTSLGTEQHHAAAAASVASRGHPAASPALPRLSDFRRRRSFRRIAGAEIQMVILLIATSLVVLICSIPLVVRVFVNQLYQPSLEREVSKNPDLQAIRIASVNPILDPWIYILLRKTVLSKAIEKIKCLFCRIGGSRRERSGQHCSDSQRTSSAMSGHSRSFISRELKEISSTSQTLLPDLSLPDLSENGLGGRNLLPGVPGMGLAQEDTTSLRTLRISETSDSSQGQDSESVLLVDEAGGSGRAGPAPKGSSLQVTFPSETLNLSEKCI
Protocol: as §1

EP4 [6] = molecular target: T5, EP4; experiment: TANGO assay (EP4/β-arrestin2 interaction); type: cell-based; set-up: tTA transcription factor (C); expressed in transfected cells; host or cells: CHO-K1
Protocol: TANGO assay was performed as described previously with some modification. Briefly, CHO-K1 cells were co-transfected with plasmids of EP4-TANGO, β-arrestin-TEV and tTA-luc at a ratio of 0.5:1:1. After 4 h, transfected cells were seeded into 96-well plates and cultured overnight. Then, cells were starved for 5 h and treated with different concentrations of compounds. After incubation for 16 h, cells were lysed and the luciferase activities were determined using Dual-Luciferase Reporter Assay Kit (Promega, Madison, WI, USA).

T1 sequence (P43116 whole entry): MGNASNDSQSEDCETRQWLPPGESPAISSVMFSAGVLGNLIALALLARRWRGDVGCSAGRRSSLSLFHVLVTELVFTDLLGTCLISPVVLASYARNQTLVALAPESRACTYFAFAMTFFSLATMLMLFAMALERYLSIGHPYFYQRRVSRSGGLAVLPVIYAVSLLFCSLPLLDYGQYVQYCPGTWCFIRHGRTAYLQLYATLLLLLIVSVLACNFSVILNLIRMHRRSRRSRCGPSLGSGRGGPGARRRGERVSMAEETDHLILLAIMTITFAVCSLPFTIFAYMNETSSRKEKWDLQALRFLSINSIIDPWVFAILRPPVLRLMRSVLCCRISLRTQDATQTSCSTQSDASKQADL

SMILES: C[C@H](NC(=O)c1c(Cc2cccc(C(F)(F)F)c2)sc2c1CCOC2)c1ccc(C(=O)O)cc1 [L001]
- IC50 (human EP2): > 10000 nM
- IC50 (human EP3): > 10000 nM
- IC50 (mouse EP4): 3.2 ± 0.28 nM
- IC50 (rat EP4): 14.2 ± 0.88 nM
- migrated cells in the lower layer of the transwell (Pan02 cells [1]): reduced migrated cells
- spheroid invasion morphology (filopodium-like protrusions) (Pan02 cells [2]): completely retracted PGE2-induced membrane surface projections
- spheroid invasion morphology (filopodium-like protrusions) (BxPC-3 cells): completely retracted PGE2-induced membrane surface projections
- mRNA expression levels of YAP, CYR61 and CTGF induced by PGE2, in comparison with E7046 [3]: stronger reductions
- YAP protein level in hepatic metastasis loci ([4]; IHC, L001 75 mg/kg p.o. daily): decreased protein levels of YAP
- H&E imaging of liver sections ([4]; L001 or E7046 75 mg/kg p.o. daily, gemcitabine 25 mg/kg i.p. twice a week): remarkably reduced metastatic clusters
- reduction of Pan02 cell liver metastases (bioluminescence of separated livers) ([4]; L001 or E7046 75 mg/kg p.o. daily, gemcitabine 25 mg/kg i.p. twice a week, n = 6): 85.14%
- reduction in median luminescence signal compared with vehicle control group ([4]; day 28, L001 or E7046 75 mg/kg p.o. daily, gemcitabine 25 mg/kg i.p. twice a week, n = 6): 80.57%
- median survival ([4]; n = 9, L001 or E7046 75 mg/kg p.o. daily, gemcitabine 25 mg/kg i.p. twice a week, control 34 days): 42 days
- mRNA expressions of Vimentin and Snail in hepatic metastasis loci ([4]; qPCR, L001 75 mg/kg p.o. daily): reduced the mRNA expressions
- IC50 (EP4 [5]): 1.47 ± 0.02 nM
- antagonism efficacy on EP4 compared with E7046 (EP4 [5]; calcium flux assay): over 5 fold
- IC50 (EP4 [6]): 0.16 ± 0.03 nM
